SMILES strings stand for the structures. Where “and” joins values, the source holds several entries; their conditions need not be identical. Equal values may be shown once. Toxic doses and inconclusive results are not listed.

Results on 13 molecules are retold here after PubChem BioAssay AID248 (DTP/NCI, 2004).

In this test the test system is L1210 leukemia ip in BDF1 mice, survival T/C. Put plainly: NCI In Vivo Anticancer Drug Screen. Data for tumor model L1210 Leukemia (intraperitoneal) in B6D2F1 (BDF1) mice. To be noted: endpoint: mean survival time, higher = longer survival. The method in brief: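 Read-out is survival time, reported as the treated-group measurement over the vehicle-control measurement.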

Where [1] appears, read: dose: 100.0 mg/kg/injection, schedule: Q04DX003 (ip), vehicle: Klucel (hydroxypropylcellulose) (HPC).
The mark [2] stands for this setting: dose: 200.0 mg/kg/injection, schedule: Q04DX003 (ip), vehicle: Klucel (hydroxypropylcellulose) (HPC).
Setting [3] is: dose: 400.0 mg/kg/injection, schedule: Q04DX003 (ip), vehicle: Klucel (hydroxypropylcellulose) (HPC).
The mark [4] stands for this setting: dose: 100.0 mg/kg/injection, schedule: Q01DX009 (ip), vehicle: Klucel (hydroxypropylcellulose) (HPC).
The mark [5] stands for this setting: dose: 200.0 mg/kg/injection, schedule: Q01DX009 (ip), vehicle: Klucel (hydroxypropylcellulose) (HPC).
The mark [6] stands for this setting: dose: 400.0 mg/kg/injection, schedule: Q01DX009 (ip), vehicle: Klucel (hydroxypropylcellulose) (HPC).
Setting [7] is: dose: 100.0 mg/kg/injection, schedule: Q01DX001 (ip), vehicle: saline.

On to `O=C1C(=O)c2cccc3cccc1c23`, for which the T/C (dose: 100.0 mg/kg/injection, schedule: Q01DX001 (ip), vehicle: Klucel (hydroxypropylcellulose) (HPC)) is 88 % of control; the T/C (dose: 100.0 mg/kg/injection, schedule: Q01DX009 (ip), vehicle: saline with Tween-80) is 90 % of control; the T/C (dose: 200.0 mg/kg/injection, schedule: Q01DX001 (ip), vehicle: Klucel (hydroxypropylcellulose) (HPC)) is 93 % of control; the T/C (dose: 200.0 mg/kg/injection, schedule: Q01DX009 (ip), vehicle: saline with Tween-80) is 89 % of control; the T/C (dose: 400.0 mg/kg/injection, schedule: Q01DX001 (ip), vehicle: Klucel (hydroxypropylcellulose) (HPC)) is 97 % of control; the T/C (dose: 400.0 mg/kg/injection, schedule: Q01DX009 (ip), vehicle: saline with Tween-80) is 89 % of control.
As to `CCOC(=O)c1cnc2onc(C)c2c1Nc1cccc(C(F)(F)F)c1`, the T/C reads like this: under setting [1], 90 % of control; under setting [2], 97 % of control; under setting [3], 101 % of control.
As for `O=C(Nc1ccccc1F)c1ccccc1`, the T/C is 97 % of control under setting [4]; 96 % of control under setting [1]; 87 % of control under setting [5]; 98 % of control under setting [2]; 89 % of control under setting [6]; 104 % of control under setting [3].
Take `O=S(=O)(O)CCN1CCN(CCS(=O)(=O)O)CC1`: the T/C under setting [4] was 95 % of control, the T/C under setting [5] was 95 % of control and the T/C under setting [6] is 101 % of control.
Take `C=C(C)c1c2ccccc2cc2cccc(Sc3ccccc3)c12`: the T/C by setting is: (dose: 100.0 mg/kg/injection, schedule: Q04DX003 (ip), vehicle: saline with Tween-80) 95 % of control; (dose: 200.0 mg/kg/injection, schedule: Q04DX003 (ip), vehicle: saline with Tween-80) 96 % of control; (dose: 400.0 mg/kg/injection, schedule: Q04DX003 (ip), vehicle: saline with Tween-80) 95 % of control.
In the case of `CC(C)(CO)N=Cc1ccccc1Br`, the T/C is, setting by setting: under setting [7], 110 % of control; (dose: 200.0 mg/kg/injection, schedule: Q01DX001 (ip), vehicle: saline) 98 % of control; (dose: 400.0 mg/kg/injection, schedule: Q01DX001 (ip), vehicle: saline) 90 % of control.
In the case of `CC(C)(C)C1=CC(=O)C=CC1=O`, the T/C is 93 % of control (dose: 50.0 mg/kg/injection, schedule: Q01DX009 (ip), vehicle: water); 100 % of control (dose: 100.0 mg/kg/injection, schedule: Q01DX001 (ip), vehicle: water); 97 % of control (dose: 100.0 mg/kg/injection, schedule: Q01DX009 (ip), vehicle: water); 102 % of control (dose: 200.0 mg/kg/injection, schedule: Q01DX001 (ip), vehicle: water).
For the molecule `COCCCNS(=O)(=O)c1ncnc2nc[nH]c12`, the T/C by setting is: (dose: 10.0 mg/kg/injection, schedule: Q01DX Z (ip), vehicle: carboxymethylcellulose (CMC)) 105 % of control; (dose: 20.0 mg/kg/injection, schedule: Q01DX Z (ip), vehicle: carboxymethylcellulose (CMC)) 103 % of control; (dose: 25.0 mg/kg/injection, schedule: Q01DX Z (ip), vehicle: carboxymethylcellulose (CMC)) 105 % of control; (dose: 40.0 mg/kg/injection, schedule: Q01DX Z (ip), vehicle: carboxymethylcellulose (CMC)) 103 % of control; (dose: 50.0 mg/kg/injection, schedule: Q01DX Z (ip), vehicle: carboxymethylcellulose (CMC)) 110 % of control; (dose: 80.0 mg/kg/injection, schedule: Q01DX Z (ip), vehicle: carboxymethylcellulose (CMC)) 93 % of control. In addition, the T/C was 117 % of control (dose: 100.0 mg/kg/injection, schedule: Q01DX Z (ip), vehicle: carboxymethylcellulose (CMC)); 88 % of control (dose: 125.0 mg/kg/injection, schedule: Q01DX Z (ip), vehicle: carboxymethylcellulose (CMC)); 87 % of control (dose: 250.0 mg/kg/injection, schedule: Q01DX Z (ip), vehicle: carboxymethylcellulose (CMC)).
For `Clc1ccc2nccnc2c1`, the T/C was 97 % of control under setting [1] and 107 % of control under setting [2].
In the case of `CC(C)CCCC(C)C1CCC2C3CC=C4CC(OC(=O)Nc5ccc(S(=O)(=O)NC6CCCCC6)cc5)CCC4(C)C3CCC12C` (stereo not given), the T/C is, setting by setting: (dose: 100.0 mg/kg/injection, schedule: Q01DX001 (sc), vehicle: steriod suspending solution) 110 % of control; (dose: 200.0 mg/kg/injection, schedule: Q01DX001 (sc), vehicle: steriod suspending solution) 108 % of control; (dose: 400.0 mg/kg/injection, schedule: Q01DX001 (sc), vehicle: steriod suspending solution) 105 % of control.
As for `Nc1cc[n+](-c2ccc([N+](=O)[O-])cc2[N+](=O)[O-])cc1`, the T/C is, setting by setting: (dose: 12.5 mg/kg/injection, schedule: Q01DX009 (ip), vehicle: Klucel (hydroxypropylcellulose) (HPC)) 98 % of control; (dose: 25.0 mg/kg/injection, schedule: Q01DX009 (ip), vehicle: Klucel (hydroxypropylcellulose) (HPC)) 100 % of control.
`CC1CCCCN1P(N1CCCCC1C)N1CCCCC1C` (stereo not given): the T/C by setting is: (dose: 100.0 mg/kg/injection, schedule: Q04DX002 (ip), vehicle: saline with Tween-80) 98 % of control; (dose: 200.0 mg/kg/injection, schedule: Q04DX002 (ip), vehicle: saline with Tween-80) 98 % of control.
Turning to `COc1cc(C=Nc2ccc(-c3nc(Cc4ccccc4)sc3C)cc2)ccc1N(CCCl)CCCl`, the T/C is, setting by setting: (dose: 4.0 mg/kg/injection, schedule: Q01DX009 (ip), vehicle: saline) 102 % of control; (dose: 6.0 mg/kg/injection, schedule: Q01DX009 (ip), vehicle: Klucel (hydroxypropylcellulose) (HPC)) 109 % of control; (dose: 6.0 mg/kg/injection, schedule: Q01DX009 (ip), vehicle: saline) 103 % of control; (dose: 8.0 mg/kg/injection, schedule: Q01DX009 (ip), vehicle: Klucel (hydroxypropylcellulose) (HPC)) 112 % of control; (dose: 8.0 mg/kg/injection, schedule: Q01DX009 (ip), vehicle: carboxymethylcellulose (CMC)) 124 % of control; (dose: 8.0 mg/kg/injection, schedule: Q01DX009 (ip), vehicle: saline) 102 % of control. Moreover, the T/C reads like this: (dose: 13.0 mg/kg/injection, schedule: Q01DX001 (ip), vehicle: Klucel (hydroxypropylcellulose) (HPC)) 109 % of control; (dose: 13.0 mg/kg/injection, schedule: Q01DX001 (ip), vehicle: saline) 93 % of control; (dose: 13.0 mg/kg/injection, schedule: Q01DX009 (ip), vehicle: saline) 100 % of control; (dose: 20.0 mg/kg/injection, schedule: Q01DX001 (ip), vehicle: Klucel (hydroxypropylcellulose) (HPC)) 113 % of control; (dose: 20.0 mg/kg/injection, schedule: Q01DX001 (ip), vehicle: saline) 91 % of control; (dose: 20.0 mg/kg/injection, schedule: Q01DX009 (ip), vehicle: carboxymethylcellulose (CMC)) 106 % of control. Also, the T/C runs as follows: (dose: 20.0 mg/kg/injection, schedule: Q01DX009 (ip), vehicle: saline) 105 % of control; (dose: 30.0 mg/kg/injection, schedule: Q01DX001 (ip), vehicle: Klucel (hydroxypropylcellulose) (HPC)) 124 % of control; (dose: 30.0 mg/kg/injection, schedule: Q01DX001 (ip), vehicle: saline) 102 % of control; (dose: 30.0 mg/kg/injection, schedule: Q01DX009 (ip), vehicle: Klucel (hydroxypropylcellulose) (HPC)) 153 % of control; (dose: 44.0 mg/kg/injection, schedule: Q01DX001 (ip), vehicle: carboxymethylcellulose (CMC)) 122 % of control; (dose: 45.0 mg/kg/injection, schedule: Q01DX001 (ip), vehicle: Klucel (hydroxypropylcellulose) (HPC)) 121 % of control. Besides, the T/C was 166 % of control (dose: 45.0 mg/kg/injection, schedule: Q01DX001 (ip), vehicle: carboxymethylcellulose (CMC)); 110 % of control (dose: 45.0 mg/kg/injection, schedule: Q01DX001 (ip), vehicle: saline); 106 % of control (dose: 66.0 mg/kg/injection, schedule: Q01DX001 (ip), vehicle: saline); 112 % of control and 124 % of control under setting [7]; 108 % of control (dose: 150.0 mg/kg/injection, schedule: Q01DX001 (ip), vehicle: carboxymethylcellulose (CMC)); 97 % of control (dose: 200.0 mg/kg/injection, schedule: Q01DX001 (ip), vehicle: carboxymethylcellulose (CMC)).
